Measurements taken from ChEMBL document CHEMBL3885881, “DrugMatrix”.

Species: Rattus norvegicus
Assay: DrugMatrix - Regimen: Daily Repeat
Format: toxicity, organism-based, Sprague-Dawley
Parameters: regimen Daily Repeat, gender Male, age 6-8 weeks
Settings: in vivo, po, route oral GAVAGE, vehicle .5 % CMC; for CREATINE PHOSPHOKINASE / CREATININE / GLUCOSE / LACTATE DEHYDROGENASE / LIPASE / PHOSPHORUS / POTASSIUM / SODIUM / TOTAL BILIRUBIN / TOTAL PROTEIN / URIC ACID / ALANINE AMINOTRANSFERASE / ALBUMIN / ALKALINE PHOSPHATASE / ASPARTATE AMINOTRANSFERASE / BLOOD UREA NITROGEN / CHLORIDE / CHOLESTEROL: tissue Plasma; for ABSOLUTE BASOPHIL / ABSOLUTE EOSINOPHIL / ABSOLUTE LYMPHOCYTE / ABSOLUTE MONOCYTE / ABSOLUTE SEGMENTED NEUTROPHIL / BASOPHIL / EOSINOPHIL / ERYTHROCYTE COUNT / HEMATOCRIT / HEMOGLOBIN / LEUKOCYTE COUNT / LYMPHOCYTE / MEAN CORPUSCULAR HEMOGLOBIN / MEAN CORPUSCULAR HEMOGLOBIN CONCENTRATION / MEAN CORPUSCULAR VOLUME / MONOCYTE / NEUTROPHIL / PLATELET COUNT: tissue Blood
[1] = 0 mg/kg, 2184 h, dose level Control, time 91 day
[2] = 0 mg/kg, […], dose level Control, time 28 day
[3] = 0.0007 mg/kg, 120 h, dose level Low, time 5 day
[4] = 0.0007 mg/kg, 2184 h, dose level Low, time 91 day

## Clc1cc2c(cc1Cl)Oc1cc(Cl)c(Cl)cc1O2 [2,3,7,8-TETRACHLORODIBENZO-P-DIOXIN]
[1]
  CREATINE PHOSPHOKINASE: 91.22 u/L
  CREATININE: 0.61 mg/dL
  GLUCOSE: 142.33 mg/dL
  LACTATE DEHYDROGENASE: 81.67 u/L
  LIPASE: 13 u/L
  PHOSPHORUS: 7.54 mg/dL
  POTASSIUM: 6.27 MEQ/L
  SODIUM: 149.89 MEQ/L
  TOTAL BILIRUBIN: 0.19 mg/dL
  TOTAL PROTEIN: 7.12 G/DL
  URIC ACID: 0.97 mg/dL
[2]
  ABSOLUTE BASOPHIL: 150 cells/µL
  ABSOLUTE EOSINOPHIL: 54 cells/µL
  ABSOLUTE LYMPHOCYTE: 8890 cells/µL
  ABSOLUTE MONOCYTE: 190 cells/µL
  ABSOLUTE SEGMENTED NEUTROPHIL: 2250 cells/µL
  BASOPHIL: 1.26%
  EOSINOPHIL: 0.46%
  ERYTHROCYTE COUNT: 8.34 x10E6/uL
  HEMATOCRIT: 48.66%
  HEMOGLOBIN: 16.04 G/DL
  LEUKOCYTE COUNT: 11.58 x10E3/uL
  LYMPHOCYTE: 76.74%
  MEAN CORPUSCULAR HEMOGLOBIN: 19.2 pg
  MEAN CORPUSCULAR HEMOGLOBIN CONCENTRATION: 32.92 G/DL
  MEAN CORPUSCULAR VOLUME: 58.32 fL
  MONOCYTE: 1.76%
  NEUTROPHIL: 19.44%
  PLATELET COUNT: 1282.6 x10E3/uL
  ALANINE AMINOTRANSFERASE: 27 u/L
  ALBUMIN: 3.68 G/DL
  ALKALINE PHOSPHATASE: 146.2 u/L
  ASPARTATE AMINOTRANSFERASE: 66.6 u/L
  BLOOD UREA NITROGEN: 12.4 mg/dL
  CHLORIDE: 104.6 MEQ/L
  CHOLESTEROL: 59.6 mg/dL
  CREATINE PHOSPHOKINASE: 121.8 u/L
  CREATININE: 0.6 mg/dL
  GLUCOSE: 143 mg/dL
  LACTATE DEHYDROGENASE: 87.8 u/L
  LIPASE: 17.4 u/L
  PHOSPHORUS: 8.68 mg/dL
  POTASSIUM: 6.02 MEQ/L
  SODIUM: 152.8 MEQ/L
  TOTAL BILIRUBIN: 0.26 mg/dL
  TOTAL PROTEIN: 6.92 G/DL
  URIC ACID: 0.52 mg/dL
[3]
  ABSOLUTE BASOPHIL: 72 cells/µL
  ABSOLUTE EOSINOPHIL: 44 cells/µL
  ABSOLUTE LYMPHOCYTE: 8990 cells/µL
  ABSOLUTE MONOCYTE: 220 cells/µL
  ABSOLUTE SEGMENTED NEUTROPHIL: 1360 cells/µL
  BASOPHIL: 0.68%
  EOSINOPHIL: 0.38%
  ERYTHROCYTE COUNT: 7.39 x10E6/uL
  HEMATOCRIT: 46.1%
  HEMOGLOBIN: 15.68 G/DL
  LEUKOCYTE COUNT: 10.75 x10E3/uL
  LYMPHOCYTE: 83.64%
  MEAN CORPUSCULAR HEMOGLOBIN: 21.26 pg
  MEAN CORPUSCULAR HEMOGLOBIN CONCENTRATION: 34.02 G/DL
  MEAN CORPUSCULAR VOLUME: 62.42 fL
  MONOCYTE: 2.06%
  NEUTROPHIL: 12.68%
  PLATELET COUNT: 1506.2 x10E3/uL
  ALANINE AMINOTRANSFERASE: 30.8 u/L
  ALBUMIN: 3.64 G/DL
  ALKALINE PHOSPHATASE: 238.8 u/L
  ASPARTATE AMINOTRANSFERASE: 76.4 u/L
  BLOOD UREA NITROGEN: 11.4 mg/dL
  CHLORIDE: 107.8 MEQ/L
  CHOLESTEROL: 61.4 mg/dL
  CREATINE PHOSPHOKINASE: 181.6 u/L
  CREATININE: 0.5 mg/dL
  GLUCOSE: 115 mg/dL
  LACTATE DEHYDROGENASE: 69.6 u/L
  LIPASE: 31.8 u/L
  PHOSPHORUS: 11.8 mg/dL
  POTASSIUM: 6.66 MEQ/L
  SODIUM: 150.8 MEQ/L
  TOTAL BILIRUBIN: 0.14 mg/dL
  TOTAL PROTEIN: 6.08 G/DL
  URIC ACID: 0.72 mg/dL
[4]
  ABSOLUTE BASOPHIL: 270 cells/µL
  ABSOLUTE EOSINOPHIL: 140 cells/µL
  ABSOLUTE LYMPHOCYTE: 10000 cells/µL
  ABSOLUTE MONOCYTE: 280 cells/µL
  ABSOLUTE SEGMENTED NEUTROPHIL: 2090 cells/µL
  BASOPHIL: 2.13%
